Assay results as given in US9981972B2, “N-hydroxy bicyclic hydantoin carbamates as tools for identification of serine hydrolase targets” (ABIDE THERAPEUTICS, INC., priority 2014, dated 2018).
“Also recorded” adds a separate entry of the source. Like-named read-outs stand apart in the source and are kept apart here. Blank lines part the entries; values can stand above or below the molecule they belong to.

Key:
[1] = molecular target: T1, human LYPLA2 (Homo sapiens, UniProt O95372); test: IC50 by gel-based competitive ABPP in vitro, soluble HeLa cell proteome; type: biochemical
T1 construct: endogenous human LYPLA1/2 in a HeLa soluble proteome; endogenous in cells; host or cells: HeLa (soluble proteome in vitro; cultured cells in situ)
Description: (§1) Assay Overview: The purpose of this assay was to determine IC50 values of powder samples of test compounds for enzyme of interest activity, and anti-targets in a complex proteomic lysate using a gel-based competitive ABPP assay. In this assay, a complex proteome was incubated with test compound followed by reaction with FP-Rh and SDS-PAGE analysis as described above.
(§2) Protocol Summary: Soluble HeLa cell proteome (50 μL reaction volume, 1 mg/mL in DPBS) or mouse brain membrane proteome (50 μL reaction volume, 1 mg/mL in DPBS) was treated with varying concentrations of test compound (1 μL of a 50× stock in DMSO) for 30 minutes at 37° C. FP-Rh (1 μL of 50× stock in DMSO) was added to a final concentration of 2 μM. The reaction was incubated for 30 minutes at 25° C., quenched with 16 μL 4×SDS-PAGE loading buffer (reducing), separated by SDS-PAGE and visualized by in-gel fluorescent scanning. The percentage activity remaining was determined by measuring the integrated optical density of the enzymes of interest, and anti-target bands relative to a DMSO-only (no compound) control. IC50 values were determined from dose-response curves from three replicates at each inhibitor concentration: 1, 10, 100, 1000, 10000 nM and 0.01, 0.1, 1, 10, 100, 1000, 10000, 50000, and 100000 nM.

[2] = molecular target: T2, human LYPLA1 (Homo sapiens, UniProt O75608); test: as above; type: biochemical
T2 construct: endogenous human LYPLA1/2 in a HeLa soluble proteome; endogenous in cells; host or cells: HeLa (soluble proteome in vitro; cultured cells in situ)
Description: as §1, §2

[3] = molecular target: T3, PPT1 (Homo sapiens, UniProt P50897); test: In situ inhibition of hPPT1 in transfected HEK293T cells, competitive ABPP with Compound 39 probe; type: cell-based; parameters: expressed in transfected cells; host or cells: HEK293T
T3 sequence (P50897 28-306): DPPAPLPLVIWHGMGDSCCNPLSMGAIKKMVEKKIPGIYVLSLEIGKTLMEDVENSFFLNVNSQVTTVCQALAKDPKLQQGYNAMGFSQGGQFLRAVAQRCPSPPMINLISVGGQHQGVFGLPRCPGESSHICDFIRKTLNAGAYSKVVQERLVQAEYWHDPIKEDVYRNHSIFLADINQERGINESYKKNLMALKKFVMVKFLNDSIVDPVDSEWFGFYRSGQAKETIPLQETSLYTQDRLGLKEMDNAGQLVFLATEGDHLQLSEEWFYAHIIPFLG
Description: HEK293T cells were seeded at 2×10^5 per well on 6 well plates and grown for 48 h. They were then transfected with mABHD3 (pCMV-Sport6), hABHD4 (pcDNA3.1/myc-his), hPPT1 (pCMV6-XL5), or hPPT1 S115A (pCMV6-XL5), by incubating 0.5 μg of DNA with 3 μL of PEI MAX (1 mg/mL, Polysciences, Inc) in serum-free DMEM for 30 min, then adding them to cells. After 48 h cells were either treated with compound in situ, as described above, or harvested for in vitro studies. The […] PPT1 mutation was introduced using QuikChange II Site Directed Mutagenesis Kit (Agilent) with the following primers: […]
(§3) In situ inhibitor treatments of human cell lines were performed as described previously (Hsu et al., J Med Chem 56, 8270-8279, 2012). Briefly, PC3 or transfected HEK293T cells were grown to confluency in serum-containing media (RPMI or DMEM, respectively). The culture media was then removed and replaced with fresh media containing DMSO or inhibitor at the desired concentration and incubated for 4 hours in a tissue culture incubator (37° C., 5% CO2). Cells were then washed with PBS, harvested, washed with PBS once more, and lysed with a probe sonicator.
This possibility was explored by treating HEK293T cells transfected with human PPT1 (hPPT1) with Compound 37 (5 μM, 4 h pre-treatment) or DMSO followed by cell lysis and treatment with Compound 39 (5 μM, 1 h). A strong, but diffuse Compound 37-sensitive, Compound 39-labeled protein band was detected by gel-based ABPP in hPPT1-transfected, but not mock-transfected cell lysates (see FIG. 14), and this diffuse signal was compressed to a tight, faster-migrating band matching the predicted molecular weight of PPT1 following treatment with the glycosidase PNGaseF (see FIG. 14). Western blotting with an anti-PPT1 antibody confirmed a similar migration pattern for hPPT1 protein in transfected cell lysates (see FIG. 14, bottom panel).
A structurally diverse panel of N-hydroxy bicyclic hydantoin carbamates were assayed at 2 or 0.2 μM for in situ inhibition of hPPT1 in transfected HEK293T cells.

[4] = molecular target: T4, ABHD4 (Homo sapiens, UniProt Q8TB40); test: ABPP-SILAC, PC3 cells treated in situ; type: cell-based; parameters: endogenous in cells; host or cells: PC3; details: 4 h in situ; for inhibition of ABHD4 in PC3 cells: FP-biotin
T4 sequence (Q8TB40 1-342): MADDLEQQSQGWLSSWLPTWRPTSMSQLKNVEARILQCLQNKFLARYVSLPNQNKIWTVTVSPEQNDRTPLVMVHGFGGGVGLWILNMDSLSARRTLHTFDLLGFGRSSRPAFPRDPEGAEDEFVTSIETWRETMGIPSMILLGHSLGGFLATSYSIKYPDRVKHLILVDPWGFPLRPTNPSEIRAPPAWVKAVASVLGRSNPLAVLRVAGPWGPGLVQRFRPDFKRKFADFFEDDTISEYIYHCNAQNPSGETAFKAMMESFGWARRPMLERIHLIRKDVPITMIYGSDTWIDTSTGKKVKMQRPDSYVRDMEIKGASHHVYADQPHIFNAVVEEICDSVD
Description: as §3
The activity and selectivity of dual ABHD3/4 and ABHD4-preferring inhibitors in PC3 cells by ABPP-SILAC was assessed. Isotopically heavy and light PC3 cells were treated in situ with inhibitor (Compound 37 (1 μM) or Compound 38 (0.5 μM)) or DMSO for 4 h and then lysed and processed for ABPP-SILAC analysis.
To evaluate the broader selectivity of Compound 26 and Compound 34 across the SH class, heavy and light isotopically-labeled PC3 cells were treated with inhibitor [Compound 34 (1 μM); or Compound 26 (1 or 0.1 μM); 4 h) and DMSO, respectively, followed by ABPP-SILAC analysis with either the FP-biotin probe or the Compound 39 probe. […] Conversely, Compound 34 inhibited >90% of ABHD4 activity, as measured with either the FP-biotin probe or the Compound 39 probe, and cross-reacted with four additional targets—ABHD6, PAFAH2, PLA2G7, and PLA2G15.

[5] = second value of the cell, read-out: hLYPLA1/2 in vitro potency (IC50): hLYPLA2
[6] = first value of the cell, read-out: hLYPLA1/2 in vitro potency (IC50): hLYPLA1
[7] = hPPT1-transfected HEK293T cells, in situ, read-out: hPPT1 (in situ), IC50

T2 sequence (O75608 whole entry): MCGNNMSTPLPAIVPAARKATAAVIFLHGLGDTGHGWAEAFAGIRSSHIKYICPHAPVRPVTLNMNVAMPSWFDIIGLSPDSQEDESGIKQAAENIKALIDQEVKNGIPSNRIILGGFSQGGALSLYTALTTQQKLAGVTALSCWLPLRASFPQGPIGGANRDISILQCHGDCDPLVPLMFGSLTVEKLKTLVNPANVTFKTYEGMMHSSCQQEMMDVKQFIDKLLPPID
T1 sequence (O95372 whole entry): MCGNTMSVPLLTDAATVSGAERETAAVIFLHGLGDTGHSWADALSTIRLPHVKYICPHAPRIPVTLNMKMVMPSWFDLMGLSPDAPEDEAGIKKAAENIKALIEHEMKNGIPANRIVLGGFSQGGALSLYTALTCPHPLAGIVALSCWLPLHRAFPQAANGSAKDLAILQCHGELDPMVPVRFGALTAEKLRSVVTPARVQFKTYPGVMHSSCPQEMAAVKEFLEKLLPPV

IC50 [1, 5]: 1.83 µM
IC50 [2, 6]: 1.75 µM
Structure (SMILES): C#Cc1ccc(CCC2CCN(C(=O)ON3C(=O)[C@@H]4CN(C(=O)N5CCOCC5)CCN4C3=O)CC2)cc1 [Compound 48, (S)-7-(morpholine-4-carbonyl)-1,3-dioxo-hexahydroimidazo[1,5-a]pyrazin-2(3H)-yl 4-(4-ethynylphenethyl)piperidine-1-carboxylate]

IC50 [3, 7]: 3.9 µM
inhibition at 1 µM ([4]; PC-3, 1 μM, FP-biotin or Compound 39 probe): > 90%
Structure (SMILES): O=C(ON1C(=O)C2CN(Cc3ccc(Oc4ccccc4)cc3)CCN2C1=O)N1CCOCC1 (stereo not drawn) [Compound 34, 1,3-dioxo-7-(4-phenoxybenzyl)hexahydroimidazo[1,5-a]pyrazin-2(3H)-yl morpholine-4-carboxylate]

IC50 [1, 5]: 1.43 µM
IC50 [2, 6]: 0.842 µM
Structure (SMILES): C#Cc1ccc(CCC2CCN(C(=O)ON3C(=O)[C@H]4CN(C(=O)N5CCOCC5)CCN4C3=O)CC2)cc1 [Compound 49, (R)-7-(morpholine-4-carbonyl)-1,3-dioxo-hexahydroimidazo[1,5-a]pyrazin-2(3H)-yl 4-(4-ethynylphenethyl)piperidine-1-carboxylate]

inhibition of ABHD4 in PC3 cells ([4]; 0.5 μM): inhibit both ABHD3 and ABHD4
Structure (SMILES): O=C(ON1C(=O)C2CN(Cc3ccc(Oc4ccccc4)cc3)CCN2C1=O)N1CCC(c2ccccc2)CC1 (stereo not drawn) [Compound 38, 1,3-dioxo-7-(4-phenoxybenzyl)hexahydroimidazo[1,5-a]pyrazin-2(3H)-yl 4-phenylpiperidine-1-carboxylate]

hPPT1 (in situ), % @ 2 μM ([3]; 2 μM, hPPT1-transfected HEK293T cells, in situ): 100% @ 2 μM
inhibition of ABHD4 in PC3 cells ([4]; 1 μM): completely inhibited
Structure (SMILES): COc1ccc(N2CCN(C(=O)ON3C(=O)C4CN(Cc5ccc(Oc6ccccc6)cc5)CCN4C3=O)CC2)cc1 (stereo not drawn) [Compound 37, 1,3-dioxo-7-(4-phenoxybenzyl)hexahydroimidazo[1,5-a]pyrazin-2(3H)-yl 4-(4-methoxyphenyl)piperazine-1-carboxylate]
reaction with hPPT1 / blockade of Compound 39 labeling ([3]; 5 μM, 4 h pre-treatment, hPPT1-transfected HEK293T cells): blocked; also recorded: reacted with PPT1

IC50 [3, 7]: 0.5 µM
IC50 ([1]; HeLa cell lysates, FP-Rh, read-out: human LYPLA2 IC50 in vitro): 0.245 µM
IC50 ([2]; HeLa cell lysates, FP-Rh, read-out: human LYPLA1 IC50 in vitro): 0.122 µM
Structure (SMILES): O=C(ON1C(=O)C2CN(C(=O)N3CCOCC3)CCN2C1=O)N1CCC(CCc2ccc(Cl)cc2)CC1 (stereo not drawn) [Compound 1, 7-(morpholine-4-carbonyl)-1,3-dioxohexahydroimidazo[1,5-a]pyrazin-2(3H)-yl 4-(4-chloro-phenethyl)piperidine-1-carboxylate]

in situ inhibition of hPPT1 at 200 nM ([3]; 200 nM, transfected HEK293T cells): complete inhibition
IC50 ([3]; gel-based competitive ABPP, read-out: in situ IC50 for recombinant PPT1): 0.1 µM
Structure (SMILES): COc1ccc(N2CCN(C(=O)ON3C(=O)C4CN(CC5CCN(Cc6ccccc6)CC5)CCN4C3=O)CC2)cc1 (stereo not drawn) [Compound 26, 7-((1-benzylpiperidin-4-yl)methyl)-1,3-dioxohexahydroimidazo[1,5-a]pyrazin-2(3H)-yl 4-(4-methoxyphenyl)piperazine-1-carboxylate]
